Source: the CheMixHub viscosity set
± gives the uncertainty stated by the source.

Experiment: xn = mol fraction of the nth substance listed

CCOC(C)=O + c1ccccc1
Conditions	viscosity [mPa·s]
298 K, 101.3 kPa, x2 = 0.1715	0.478 ± 0.048
298 K, 101.3 kPa, x2 = 0.3251	0.489 ± 0.049
298 K, 101.3 kPa, x2 = 0.5324	0.507 ± 0.051
298 K, 101.3 kPa, x2 = 0.6702	0.534 ± 0.054
298 K, 101.3 kPa, x2 = 0.8535	0.57 ± 0.057
298.15 K, 101 kPa, x1 = 0.0447	0.588 ± 0.005
298.15 K, 101 kPa, x1 = 0.1505	0.556 ± 0.005
298.15 K, 101 kPa, x1 = 0.2473	0.5181 ± 0.0041
298.15 K, 101 kPa, x1 = 0.2482	0.531 ± 0.005
298.15 K, 101 kPa, x1 = 0.3049	0.499 ± 0.004
298.15 K, 101 kPa, x1 = 0.3312	0.499 ± 0.004
298.15 K, 101 kPa, x1 = 0.351	0.507 ± 0.004
298.15 K, 101 kPa, x1 = 0.4099	0.483 ± 0.004
298.15 K, 101 kPa, x1 = 0.4481	0.489 ± 0.004
298.15 K, 101 kPa, x1 = 0.453	0.4803 ± 0.004
298.15 K, 101 kPa, x1 = 0.461	0.4782 ± 0.004
298.15 K, 101 kPa, x1 = 0.4981	0.48 ± 0.004
298.15 K, 101 kPa, x1 = 0.5495	0.472 ± 0.004
298.15 K, 101 kPa, x1 = 0.6517	0.458 ± 0.004
298.15 K, 101 kPa, x1 = 0.7368	0.4446 ± 0.0039
298.15 K, 101 kPa, x1 = 0.7524	0.446 ± 0.004
298.15 K, 101 kPa, x1 = 0.8551	0.437 ± 0.004
298.15 K, 101 kPa, x1 = 0.9445	0.431 ± 0.004
298.15 K, 101 kPa, x2 = 0.1725	0.442 ± 0.006
298.15 K, 101 kPa, x2 = 0.5441	0.487 ± 0.007
298.15 K, 101 kPa, x2 = 0.826	0.551 ± 0.007
308.15 K, 101 kPa, x1 = 0.0447	0.515 ± 0.004
308.15 K, 101 kPa, x1 = 0.1505	0.492 ± 0.004
308.15 K, 101 kPa, x1 = 0.2482	0.472 ± 0.004
308.15 K, 101 kPa, x1 = 0.351	0.455 ± 0.004
308.15 K, 101 kPa, x1 = 0.4481	0.44 ± 0.004
308.15 K, 101 kPa, x1 = 0.4981	0.433 ± 0.004
308.15 K, 101 kPa, x1 = 0.5495	0.426 ± 0.004
308.15 K, 101 kPa, x1 = 0.6517	0.415 ± 0.004
308.15 K, 101 kPa, x1 = 0.7524	0.405 ± 0.004
308.15 K, 101 kPa, x1 = 0.8551	0.396 ± 0.004
308.15 K, 101 kPa, x1 = 0.9445	0.39 ± 0.004
318 K, 101.3 kPa, x2 = 0.1624	0.3894 ± 0.016
318 K, 101.3 kPa, x2 = 0.3233	0.3971 ± 0.016
318 K, 101.3 kPa, x2 = 0.5251	0.4129 ± 0.017
318 K, 101.3 kPa, x2 = 0.671	0.4287 ± 0.017
318 K, 101.3 kPa, x2 = 0.8633	0.4505 ± 0.018

COc1ccc(C=O)cc1 + Cc1cccc(O)c1
Conditions	viscosity [mPa·s]
318.15 K, 101 kPa, x1 = 0.4656	4.085 ± 0.03

CCOC(C)=O + CC#N
303.15 K, 101.33 kPa
Conditions	viscosity [mPa·s]
x2 = 0.0931	0.3988 ± 0.0035
x2 = 0.1928	0.3934 ± 0.0035
x2 = 0.298	0.3881 ± 0.0035
x2 = 0.3925	0.3819 ± 0.0035
x2 = 0.4985	0.3753 ± 0.0034
x2 = 0.5974	0.3676 ± 0.0034
x2 = 0.6982	0.3591 ± 0.0034
x2 = 0.8001	0.3486 ± 0.0033
x2 = 0.8988	0.3402 ± 0.0033

OCC(O)CO + CC(=O)N(C)C
viscosity [mPa·s], 101 kPa
Conditions	x1 = 0.124	x1 = 0.241	x1 = 0.353	x1 = 0.459	x1 = 0.56	x1 = 0.656	x1 = 0.748	x1 = 0.836	x1 = 0.92
303.15 K	2.21 ± 0.04	3.92 ± 0.07	7.04 ± 0.12	12.8 ± 0.2	29.9 ± 0.5	61.6 ± 1	120.7 ± 3	204.4 ± 7	335.7 ± 15
318.15 K	1.78 ± 0.03	3.01 ± 0.05	4.79 ± 0.08	7.81 ± 0.13	17.6 ± 0.3	26.3 ± 0.4	43.2 ± 0.7	75.9 ± 1.3	117.4 ± 2.8

CCOc1ccccc1 + CCO
298.15 K, 101 kPa
Conditions	viscosity [mPa·s]
x2 = 0.3183	1.067 ± 0.011
x2 = 0.5186	1.035 ± 0.01
x2 = 0.6605	1.01 ± 0.01
x2 = 0.764	0.997 ± 0.01
x2 = 0.8437	0.991 ± 0.01
x2 = 0.9064	1 ± 0.01
x2 = 0.9609	1.035 ± 0.01

CCOc1ccccc1 + CN(C)C=O
viscosity [mPa·s], 101.33 kPa
Conditions	x1 = 0.031	x1 = 0.091	x1 = 0.153	x1 = 0.223	x1 = 0.304	x1 = 0.463	x1 = 0.556	x1 = 0.642	x1 = 0.8
298 K	0.815 ± 0.017	0.839 ± 0.018	0.862 ± 0.018	0.889 ± 0.019	0.919 ± 0.02	0.978 ± 0.021	1.012 ± 0.022	1.042 ± 0.022	1.097 ± 0.024
303 K	0.769 ± 0.017	0.788 ± 0.017	0.808 ± 0.017	0.831 ± 0.018	0.857 ± 0.018	0.907 ± 0.019	0.936 ± 0.02	0.963 ± 0.021	1.01 ± 0.022
308 K	0.73 ± 0.016	0.747 ± 0.016	0.763 ± 0.016	0.783 ± 0.017	0.804 ± 0.017	0.847 ± 0.018	0.871 ± 0.019	0.893 ± 0.019	0.933 ± 0.02

COC(=O)CC(C)=O + CCCCCCC(C)O
viscosity [mPa·s], 101.3 kPa
Conditions	x1 = 0.1041	x1 = 0.2072	x1 = 0.3091	x1 = 0.4101	x1 = 0.5107	x1 = 0.6079	x1 = 0.7081	x1 = 0.807	x1 = 0.9036
298.15 K	4.231 ± 0.1	3.315 ± 0.08	2.753 ± 0.066	2.358 ± 0.057	2.075 ± 0.05	1.9 ± 0.046	1.699 ± 0.041	1.574 ± 0.038	1.52 ± 0.037
303.15 K	3.511 ± 0.084	2.796 ± 0.067	2.344 ± 0.057	2.026 ± 0.049	1.796 ± 0.044	1.661 ± 0.041	1.506 ± 0.037	1.413 ± 0.035	1.374 ± 0.034
308.15 K	2.939 ± 0.07	2.377 ± 0.057	2.015 ± 0.049	1.756 ± 0.043	1.567 ± 0.038	1.476 ± 0.036	1.352 ± 0.033	1.279 ± 0.032	1.251 ± 0.031

COC(=O)CC(C)=O + CCCCCO
viscosity [mPa·s], 101.33 kPa
Conditions	x1 = 0.1031	x1 = 0.2056	x1 = 0.3072	x1 = 0.4083	x1 = 0.5091	x1 = 0.6099	x1 = 0.7075	x1 = 0.8063	x1 = 0.9019
298.15 K	2.467 ± 0.058	2.053 ± 0.049	1.796 ± 0.043	1.637 ± 0.04	1.52 ± 0.037	1.439 ± 0.035	1.408 ± 0.034	1.408 ± 0.034	1.449 ± 0.035
303.15 K	2.156 ± 0.051	1.809 ± 0.043	1.588 ± 0.038	1.453 ± 0.035	1.356 ± 0.033	1.294 ± 0.032	1.268 ± 0.031	1.275 ± 0.031	1.313 ± 0.032
308.15 K	1.903 ± 0.046	1.606 ± 0.039	1.419 ± 0.035	1.3 ± 0.032	1.223 ± 0.03	1.175 ± 0.029	1.156 ± 0.029	1.164 ± 0.029	1.201 ± 0.03

CC(C)[C@H](N)C(=O)[O-].[Na+] + O
viscosity [mPa·s], 101 kPa
Conditions	x1 = 0.004484	x1 = 0.008927	x1 = 0.01333	x1 = 0.0177	x1 = 0.02202	x1 = 0.02631
293.15 K	1.165 ± 0.011	1.356 ± 0.012	1.571 ± 0.013	1.816 ± 0.014	2.087 ± 0.016	2.385 ± 0.018
303.15 K	0.919 ± 0.011	1.057 ± 0.011	1.214 ± 0.012	1.382 ± 0.013	1.573 ± 0.014	1.786 ± 0.015
313.15 K	0.747 ± 0.01	0.85 ± 0.011	0.969 ± 0.011	1.094 ± 0.011	1.233 ± 0.012	1.387 ± 0.013
323.15 K	0.621 ± 0.01	0.702 ± 0.01	0.793 ± 0.01	0.889 ± 0.011	0.994 ± 0.011	1.11 ± 0.012

CCOC(C)=O + CCCCO
298.15 K
Conditions	viscosity [mPa·s]
101 kPa, x2 = 0.12	0.48 ± 0.005
101 kPa, x2 = 0.23	0.51 ± 0.005
101 kPa, x2 = 0.34	0.578 ± 0.006
101 kPa, x2 = 0.44	0.648 ± 0.007
101 kPa, x2 = 0.54	0.79 ± 0.008
101 kPa, x2 = 0.64	0.987 ± 0.01
101 kPa, x2 = 0.73	1.165 ± 0.011
101 kPa, x2 = 0.83	1.425 ± 0.014
101 kPa, x2 = 0.91	1.815 ± 0.018
101.33 kPa, x2 = 0.1338	0.468 ± 0.004
101.33 kPa, x2 = 0.2522	0.517 ± 0.004
101.33 kPa, x2 = 0.3724	0.599 ± 0.005
101.33 kPa, x2 = 0.4809	0.691 ± 0.006
101.33 kPa, x2 = 0.5952	0.838 ± 0.007
101.33 kPa, x2 = 0.7033	1.041 ± 0.008
101.33 kPa, x2 = 0.801	1.331 ± 0.01
101.33 kPa, x2 = 0.8918	1.741 ± 0.013

OCC(O)CO + CCCCO
viscosity [mPa·s], 101.33 kPa
Conditions	x1 = 0.1003	x1 = 0.1997	x1 = 0.3003	x1 = 0.4007	x1 = 0.4996	x1 = 0.5995	x1 = 0.6994	x1 = 0.8004	x1 = 0.8999
298.15 K	4.05 ± 0.41	6.403 ± 0.65	10.09 ± 1	18.38 ± 1.9	37.92 ± 4	83.21 ± 8.8	180.7 ± 19	338.3 ± 36	541.7 ± 59
308.15 K	3.014 ± 0.31	4.518 ± 0.46	6.896 ± 0.71	11.9 ± 1.2	21.63 ± 2.3	44.15 ± 4.6	82.38 ± 8.5	144.5 ± 15	231.5 ± 24
318.15 K	2.324 ± 0.24	3.356 ± 0.34	4.9 ± 0.5	8.136 ± 0.83	13.77 ± 1.4	24.56 ± 2.5	41.13 ± 4.2	68.13 ± 7	105.3 ± 11
